From patent US20190142718A1, “NOVEL USE” (DSM IP ASSETS B.V., priority 2017, published 2019)

How the values were obtained:
Experiment in all cases: Antimicrobial efficacy, challenge test in analogy to NF EN ISO11930
[1] = tested on: M. furfur; assay type: cell-based, Malassezia furfur
Description: (§1) The antimicrobial efficacy is assessed in analogy to the regulatory challenge test method (NF EN IS011930). Thus, a solution of 0.2 wt.-% of phytantriol in a physiological serum with 0.85 wt.-% NaCl supplemented with 10 wt.-% ethanol was prepared. A control was also prepared under sterile conditions based on a serum with 0.85 wt.-% NaCl and 10 wt.-% ethanol.
(§2) The control as well as the phytantriol solution were deposed in 96-deep well plates (1.6 ml/well). The wells were contaminated with the respective bacterial or the fungal strains as outlined in table 1 at 2.5*10^5 to 5.6*10^5 cfu/ml for the bacteria and 1*10^4 to 2.5*10^4 cfu/ml for the fungi to obtain the initial contamination as outlined in table 1. After the contamination, each well was thoroughly mixed to ensure a homogeneous distribution of the microorganism. Then each plate was incubated at 22° C. for 24h. The counting of the (remaining) population was carried out 24h after contamination.

[2] = tested on: P. Acnes; assay type: cell-based, Propionibacterium acnes
Description: as §1, §2

[3] = tested on: S. epidermidis; assay type: cell-based, Staphylococcus epidermidis
Description: as §1, §2

[4] = tested on: S. aureus; assay type: cell-based, Staphylococcus aureus
Description: as §1, §2

[5] = tested on: A. brasiliensis; assay type: cell-based, Aspergillus brasiliensis
Description: as §1, §2

[6] = tested on: C. albicans; assay type: cell-based, Candida albicans
Description: as §1, §2

CC(C)CCCC(C)CCCC(C)CCCC(C)(O)C(O)CO (stereo not drawn) [Phytantriol, 3,7,11,15-tetramethyl-hexadecane-1,2,3-triol] was tested, and the “colony counts 24 h” value ([1]; 0.2 wt.-% phytantriol in 0.85 wt.-% NaCl serum with 10 wt.-% ethanol, 22° C., 24 h after contamination, 0 h count 4000, control 24 h 775) was 0 cfu/ml, the antimicrobial effect ([1]; against Malassezia furfur, 0.2 wt.-%, 24 h) was “significant antimicrobial effect” and the “colony counts 24 h” value ([2]; 0.2 wt.-% phytantriol in 0.85 wt.-% NaCl serum with 10 wt.-% ethanol, 22° C., 24 h after contamination, 0 h count 310000, control 24 h 30000) was 28000 cfu/ml. The antimicrobial effect ([2]; against Propionibacterium acnes, 0.2 wt.-%, 24 h) was “significant antimicrobial effect”, the “colony counts 24 h” value ([3]; 0.2 wt.-% phytantriol in 0.85 wt.-% NaCl serum with 10 wt.-% ethanol, 22° C., 24 h after contamination, 0 h count 560000, control 24 h 28000) was 0 cfu/ml and the antimicrobial effect ([3]; against Staphylococcus epidermidis, 0.2 wt.-%, 24 h) was “significant antimicrobial effect”. For the same molecule, the “colony counts 24 h” value ([4]; 0.2 wt.-% phytantriol in 0.85 wt.-% NaCl serum with 10 wt.-% ethanol, 22° C., 24 h after contamination, 0 h count 250000, control 24 h 280000) was 0 cfu/ml, the antimicrobial effect ([4]; against Staphylococcus aureus, 0.2 wt.-%, 24 h) was “significant antimicrobial effect” and the “colony counts 24 h” value ([5]; 0.2 wt.-% phytantriol in 0.85 wt.-% NaCl serum with 10 wt.-% ethanol, 22° C., 24 h after contamination, 0 h count 10000, control 24 h 1000) was 10 cfu/ml. For the same molecule, the antimicrobial effect ([5]; against Aspergillus brasiliensis, 0.2 wt.-%, 24 h) was “significant antimicrobial effect”, the “colony counts 24 h” value ([6]; 0.2 wt.-% phytantriol in 0.85 wt.-% NaCl serum with 10 wt.-% ethanol, 22° C., 24 h after contamination, 0 h count 25000, control 24 h 5000) was 1000 cfu/ml and the antimicrobial effect ([6]; against Candida albicans, 0.2 wt.-%, 24 h) was “significant antimicrobial effect”.
